Measured values published in patent US7297551B2, “Recombinant proteins and peptides for endotoxin biosensors, endotoxin removal, and anti-microbial and anti-endotoxin therapeutics” (priority 1998, dated 2007).

Tests used:
[1] = target: T1, SSCrFCES (LPS-binding domain of C. rotundicauda Factor C, rFCES amino acids 29-330, numbered as in SEQ ID NO: 4) (Carcinoscorpius rotundicauda, UniProt Q26422); test: Surface plasmon resonance binding to immobilized lipid A; conditions: 400 ng/100 ul SSCrFCES
T1 construct: rFCES (amino acids 29-330); made in house; host or cells: Drosophila S2 cells
T1 sequence (Q26422 29-330): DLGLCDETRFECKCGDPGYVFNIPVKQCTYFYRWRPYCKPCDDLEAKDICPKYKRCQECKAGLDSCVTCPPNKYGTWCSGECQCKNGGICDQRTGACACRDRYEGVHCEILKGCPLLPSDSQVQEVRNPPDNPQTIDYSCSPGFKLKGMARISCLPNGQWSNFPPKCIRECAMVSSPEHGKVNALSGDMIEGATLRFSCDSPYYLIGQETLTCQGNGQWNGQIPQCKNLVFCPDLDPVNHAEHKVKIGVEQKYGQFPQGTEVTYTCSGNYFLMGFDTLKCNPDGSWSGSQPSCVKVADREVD
Method: Recognition of lipid A by the abovenamed secreted recombinant proteins and peptides was, performed with a BIAcore X™ biosensor instrument and an HPA sensor chip. Briefly, lipid A at 0.5 mg/ml in PBS was immobilized to a HPA sensor chip (Pharmacia) according to the manufacturer's specification. In all experiments, pyrogen-free PBS was used as the running buffer at a flow rate of 10 μl/min.
With purified SSCrFCES, 4 μg/ml was injected into the flow cell at a rate of 10 μl/min, and the binding response was measured as a function of time. Following injection of SSCrFCES, a solution of INDIA™ HisProbe™-HRP antibody, diluted in PBS to 400 μg/ml, was also injected to cause a shift in SPR in order to further confirm that SSCrFCES binds to lipid A. For regeneration, 100 mM of NaOH solution was injected for 5 minutes. Similar lipid A binding analysis was carried out with SSCrFCsushi-GFP fusion proteins.

[2] = target: T2, rFC (full-length recombinant C. rotundicauda Factor C, CrFC21, from P. pastoris) (Carcinoscorpius rotundicauda, UniProt Q26422); test: BIACORE X binding to immobilized lipid A; conditions: partially-pure rFC to lipid A 10:1 on a mass basis
T2 sequence (Q26422 1-1019): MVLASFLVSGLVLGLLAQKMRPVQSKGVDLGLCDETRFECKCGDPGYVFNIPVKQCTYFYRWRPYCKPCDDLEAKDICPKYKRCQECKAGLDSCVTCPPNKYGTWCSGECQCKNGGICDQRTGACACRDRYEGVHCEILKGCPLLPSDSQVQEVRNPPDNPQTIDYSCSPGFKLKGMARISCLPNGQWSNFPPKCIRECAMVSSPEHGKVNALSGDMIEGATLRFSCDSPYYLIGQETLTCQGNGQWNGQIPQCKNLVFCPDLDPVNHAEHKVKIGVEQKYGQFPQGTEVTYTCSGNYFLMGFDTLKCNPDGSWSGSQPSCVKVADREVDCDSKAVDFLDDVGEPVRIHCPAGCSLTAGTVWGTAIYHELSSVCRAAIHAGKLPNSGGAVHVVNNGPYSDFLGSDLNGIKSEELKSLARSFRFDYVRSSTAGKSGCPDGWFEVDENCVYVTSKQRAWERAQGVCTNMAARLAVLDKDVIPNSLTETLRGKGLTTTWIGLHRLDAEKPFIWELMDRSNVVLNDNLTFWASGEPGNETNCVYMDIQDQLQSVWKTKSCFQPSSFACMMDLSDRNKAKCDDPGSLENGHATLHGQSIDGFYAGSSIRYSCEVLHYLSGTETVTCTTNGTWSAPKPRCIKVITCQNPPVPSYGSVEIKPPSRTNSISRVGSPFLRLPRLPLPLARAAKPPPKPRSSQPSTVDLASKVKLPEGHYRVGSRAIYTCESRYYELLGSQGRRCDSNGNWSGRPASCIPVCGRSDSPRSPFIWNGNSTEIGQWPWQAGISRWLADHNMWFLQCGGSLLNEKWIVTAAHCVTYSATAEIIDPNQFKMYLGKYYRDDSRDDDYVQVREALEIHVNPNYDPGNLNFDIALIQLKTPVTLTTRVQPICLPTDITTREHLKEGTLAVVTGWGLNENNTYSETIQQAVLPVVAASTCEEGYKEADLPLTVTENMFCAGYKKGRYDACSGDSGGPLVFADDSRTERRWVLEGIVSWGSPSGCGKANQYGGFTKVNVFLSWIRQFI
Method: (§1) The binding interactions between rFC and immobilized lipid A were monitored using the BIACORE X™ biosensor (Pharmacia Biotech). The BIACORE X™ sensor chip features a flat hydrophobic surface that allows the immobilization of ligand molecules. Thirty microliters of lipid A at 100 μg/ml were immobilized on each sensor chip to form a ligand surface. Biomax™-50 enriched samples of rFC, rFCEE and rFCSN, each at 1 mg/ml were injected at 10 μl/min for 3 min over the ligand surface. After each injection of the recombinant protein samples, the lipid A ligand surface was regenerated using 0.1 M NaOH. The ligand-binding was measured in relative response units (RU) for each sample, and calculated from the difference in RU at the baseline, viz., before injection of sample, and final experimental reading taken after sample injection and a 2-min wash. The percentage binding was thus determined.

[3] = target: T3, rFCEE (truncated C. rotundicauda Factor C, CrFC21EE, amino acids 1-766, from P. pastoris) (Carcinoscorpius rotundicauda, UniProt Q26422); test: BIACORE X binding to immobilized lipid A; conditions: Biomax-50 enriched, normalized with rFCSN
T3 construct: Pichia pastoris, Biomax-50 enriched
T3 sequence (Q26422 1-766): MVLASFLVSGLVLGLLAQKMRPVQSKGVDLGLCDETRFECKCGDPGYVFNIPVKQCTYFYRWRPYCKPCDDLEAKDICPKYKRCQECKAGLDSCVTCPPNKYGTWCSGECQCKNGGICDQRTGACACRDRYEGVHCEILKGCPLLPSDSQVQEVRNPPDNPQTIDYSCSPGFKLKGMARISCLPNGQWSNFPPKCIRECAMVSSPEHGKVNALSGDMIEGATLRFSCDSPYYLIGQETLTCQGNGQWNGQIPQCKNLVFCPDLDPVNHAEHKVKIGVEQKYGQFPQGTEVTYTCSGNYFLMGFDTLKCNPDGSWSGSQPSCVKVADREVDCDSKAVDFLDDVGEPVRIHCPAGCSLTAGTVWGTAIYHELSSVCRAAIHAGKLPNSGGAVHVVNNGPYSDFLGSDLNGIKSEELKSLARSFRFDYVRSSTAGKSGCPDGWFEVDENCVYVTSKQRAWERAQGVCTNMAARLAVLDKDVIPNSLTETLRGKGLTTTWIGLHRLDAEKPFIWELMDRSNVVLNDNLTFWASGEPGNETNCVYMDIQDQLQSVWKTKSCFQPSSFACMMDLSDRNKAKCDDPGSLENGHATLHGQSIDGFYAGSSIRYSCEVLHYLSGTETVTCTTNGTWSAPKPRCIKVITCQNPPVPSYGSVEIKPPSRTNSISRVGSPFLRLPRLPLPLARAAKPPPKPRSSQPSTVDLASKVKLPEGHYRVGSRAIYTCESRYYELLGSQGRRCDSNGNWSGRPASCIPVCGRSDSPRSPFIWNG
Method: as §1

lipid A
saturation of lipid A [1]: 92%
net response, lipid A bound [2]: approximately 30%
net response, lipid A bound [3]: 15%
